Measured values as given in ChEMBL document CHEMBL4706609, “Development of triazolothiadiazine derivatives as highly potent tubulin polymerization inhibitors: Structure-activity relationship, in vitro and in vivo study” (Eur J Med Chem, 2020).
Active and inactive are the calls of the source. The rule behind the calls is not given here.

Tests used:
A549 [1] = assay: Induction of apoptosis in human A549 cells assessed as increase in cleaved PARP level incubated for 24 hrs by Western blot analysis; assay type: functional, cell-based; conditions: dose nM <=10, time 24.0 hrs
[2] = Antitumor activity against human A549 cells xenografted in BALB/c mouse assessed as tumor weight at 60 mg/kg, ip measured every 2 days upto 30 days (reference value: 0.563 g); assay type: functional; conditions: time 2 day
[3] = Antitumor activity against human A549 cells xenografted in BALB/c mouse assessed as tumor growth inhibition at 15 mg/kg, ip measured every 2 days upto 30 days relative to control; assay type: functional; design: scale not given: the % may be the effect or the level left; conditions: time 30 day
A549 [4] = assay: Induction of apoptosis in human A549 cells assessed as decrease in Bcl2 level upto 10 nM incubated for 24 hrs by Western blot analysis; assay type: functional, cell-based; conditions: dose nM <=10, time 24.0 hrs
[5] = Antitumor activity against human A549 cells xenografted in BALB/c mouse assessed as tumor volume at 60 mg/kg, ip measured for every 2 days upto 30 days (reference value: 652.13 mm^3); assay type: functional; conditions: time 2 day
A549 [6] = assay: Induction of apoptosis in human A549 cells assessed as necrotic cells at 5 nM measured after 24 hrs by Annexin V-FITC/propidium iodide staining based flow cytometry (reference value: 0.508%); assay type: functional
A549 [7] = assay: Antiproliferative activity against cisplatin resistant human A549 cells assessed as reduction in cell growth after 48 hrs by MTT assay; assay type: functional, cell-based; conditions: A549, 48 h
A549 [8] = assay: Induction of cell cycle arrest in human A549 cells assessed as accumulation at G2/M phase upto 20 nM incubated for 24 hrs by flow cytometry; assay type: functional, cell-based; conditions: dose nM <=20, time 24.0 hrs
A549 [9] = assay: Induction of apoptosis in human A549 cells assessed as increase in cleaved caspase-3 level incubated for 24 hrs by Western blot analysis; assay type: functional, cell-based; conditions: dose nM <=10, time 24.0 hrs
A549 [10] = assay: Induction of apoptosis in human A549 cells assessed as early apoptotic cells at 5 nM measured after 24 hrs by Annexin V-FITC/propidium iodide staining based flow cytometry (reference value: 2.72%); assay type: functional
[11] = Antitumor activity against human A549 cells xenografted in BALB/c mouse assessed as tumor volume at 8 mg/kg, ip measured for every 2 days upto 30 days (reference value: 652.13 mm^3); assay type: functional; conditions: time 2 day
A549 [12] = assay: Induction of apoptosis in human A549 cells assessed as necrotic cells at 10 nM measured after 24 hrs by Annexin V-FITC/propidium iodide staining based flow cytometry (reference value: 0.508%); assay type: functional
[13] = Antitumor activity against human A549 cells xenografted in BALB/c mouse assessed as tumor weight at 8 mg/kg, ip measured every 2 days for every 2 days upto 30 days (reference value: 0.563 g); assay type: functional; conditions: time 2 day
HeLa = assay: Antiproliferative activity against human HeLa cells assessed as reduction in cell growth after 48 hrs by MTT assay; assay type: functional, cell-based
HT-29 = assay: Antiproliferative activity against human HT-29 cells assessed as reduction in cell growth after 48 hrs by MTT assay; assay type: functional, cell-based; conditions: HT-29, 48 h
Sus scrofa = species on record: Sus scrofa; assay: (§1) Inhibition of porcine brain tubulin polymerization measured for 20 mins by spectrometric assay; assay type: tissue-based
[14] = as §1; assay type: tissue-based, Sus scrofa
A549 [15] = assay: Induction of apoptosis in human A549 cells assessed as late apoptotic cells at 2.5 nM measured after 24 hrs by Annexin V-FITC/propidium iodide staining based flow cytometry (reference value: 1.51%); assay type: functional
[16] = Antitumor activity against human A549 cells xenografted in BALB/c mouse assessed as tumor weight at 15 mg/kg, ip measured every 2 days upto 30 days (reference value: 0.563 g); assay type: functional; conditions: time 2 day
A2780 = assay: Antiproliferative activity against paclitaxel-resistant human A2780 cells assessed as reduction in cell growth after 48 hrs by MTT assay; assay type: functional, cell-based; conditions: A2780, 48 h
A549 [17] = assay: Induction of cell cycle arrest in human A549 cells assessed as inhibition of p-cdc2/cyclin B1 activity incubated for 24 hrs by Western blot analysis; assay type: functional, cell-based
[18] = Antitumor activity against human A549 cells xenografted in BALB/c mouse assessed as tumor growth inhibition at 60 mg/kg, ip measured every 2 days upto 30 days relative to control; assay type: functional; design: scale not given: the % may be the effect or the level left; conditions: time 30 day
A549 [19] = assay: Induction of cell cycle arrest in human A549 cells assessed as increase in p-cdc2 expression upto 10 nM incubated for 24 hrs by Western blot analysis; assay type: functional, cell-based; conditions: dose nM <=10, time 24.0 hrs
A549 [20] = assay: Induction of apoptosis in human A549 cells assessed as late apoptotic cells at 5 nM measured after 24 hrs by Annexin V-FITC/propidium iodide staining based flow cytometry (reference value: 1.51%); assay type: functional
A549 [21] = assay: Induction of apoptosis in human A549 cells assessed as necrotic cells at 2.5 nM measured after 24 hrs by Annexin V-FITC/propidium iodide staining based flow cytometry (reference value: 0.508%); assay type: functional
Tubulin = assay: Inhibition of tubulin polymerization in human A549 cells assessed as disruption of microtubule organization at 50 nM incubated for 6 hrs by immunofluorescent staining; assay type: cell-based
A549 [22] = assay: Induction of apoptosis in human A549 cells assessed as viable cells at 2.5 nM measured after 24 hrs by Annexin V-FITC/propidium iodide staining based flow cytometry (reference value: 95.3%); assay type: functional; conditions: read-out: Activity
A549 [23] = assay: Induction of apoptosis in human A549 cells assessed as viable cells at 5 nM measured after 24 hrs by Annexin V-FITC/propidium iodide staining based flow cytometry (reference value: 95.3%); assay type: functional; conditions: read-out: Activity
A549 [24] = assay: Induction of apoptosis in human A549 cells assessed as late apoptotic cells at 10 nM measured after 24 hrs by Annexin V-FITC/propidium iodide staining based flow cytometry (reference value: 1.51%); assay type: functional
MCF7 = assay: Antiproliferative activity against human MCF7 cells assessed as reduction in cell growth after 48 hrs by MTT assay; assay type: functional, cell-based; conditions: MCF7, 48 h
A549 [25] = assay: Induction of apoptosis in human A549 cells assessed as viable cells at 10 nM measured after 24 hrs by Annexin V-FITC/propidium iodide staining based flow cytometry (reference value: 95.3%); assay type: functional; conditions: read-out: Activity
A549 [26] = assay: Induction of apoptosis in human A549 cells assessed as apoptotic cells upto 10 nM measured after 24 hrs by Annexin V-FITC/propidium iodide staining based flow cytometry; assay type: functional, cell-based; conditions: dose nM <=10, time 24.0 hrs
A549 [27] = assay: Induction of apoptosis in human A549 cells assessed as early apoptotic cells at 10 nM measured after 24 hrs by Annexin V-FITC/propidium iodide staining based flow cytometry (reference value: 2.72%); assay type: functional
[28] = Antitumor activity against human A549 cells xenografted in BALB/c mouse assessed as tumor volume at 15 mg/kg, ip measured for every 2 days upto 30 days (reference value: 652.13 mm^3); assay type: functional; conditions: time 2 day
A549 [29] = assay: Antiproliferative activity against human A549 cells assessed as reduction in cell growth after 48 hrs by MTT assay; assay type: functional, cell-based; conditions: A549, 48 h
HEK293 = assay: Cytotoxicity against HEK293 cells assessed as reduction in cell growth after 48 hrs by MTT assay; assay type: cell-based; conditions: Homo sapiens, HEK293, 48 h
A549 [30] = assay: Induction of apoptosis in human A549 cells assessed as early apoptotic cells at 2.5 nM measured after 24 hrs by Annexin V-FITC/propidium iodide staining based flow cytometry (reference value: 2.72%); assay type: functional
[31] = Toxicity in BALB/c mouse xenografted with human A549 cells assessed as change in body weight at 60 mg/kg, ip measured after 30 days; assay type: organism-based; conditions: in vivo, 720 h, time 30 day
[32] = Toxicity in BALB/c mouse xenografted with human A549 cells assessed as change in body weight at 15 mg/kg, ip measured after 30 days; assay type: organism-based; conditions: in vivo, 720 h, time 30 day
A549 [33] = assay: Induction of cell cycle arrest in human A549 cells assessed as accumulation at G2/M phase at 20 nM incubated for 24 hrs by flow cytometry relative to control; assay type: functional
[34] = Antitumor activity against human A549 cells xenografted in BALB/c mouse assessed as tumor growth inhibition at 8 mg/kg, ip measured every 2 days for every 2 days upto 30 days relative to control; assay type: functional; design: scale not given: the % may be the effect or the level left; conditions: time 2 day

**Q.** Which results are given for `COc1cc(-c2nnc3n2N=C(c2ccc(C)cc2)CS3)cc(OC)c1OC`?
**A.** Activity (A549 [1]): Dose-dependent effect; Activity [2]: 0.313 g; Activity [3]: 29.5%; Activity (A549 [4]): Active; Activity [5]: 354.12 mm3; Activity (A549 [6]): 0.694%; IC50 (A549 [7]): 3950 nM; Activity (A549 [8]): Dose-dependent effect; Activity (A549 [9]): Dose-dependent effect; Activity (A549 [10]): 6.58%; Activity [11]: 264 mm3; Activity (A549 [12]): 0.666%; Activity [13]: 0.234 g; IC50 (HeLa): 4 nM; IC50 (HT-29): 23 nM; inhibition (Sus scrofa): Dose-dependent effect; IC50 [14]: 1690 nM; Activity (A549 [15]): 5.36%; Activity [16]: 0.397 g; IC50 (A2780): 18800 nM; Activity (A549 [17]): Active; Activity [18]: 44.4%; Activity (A549 [19]): Dose-dependent effect; Activity (A549 [20]): 9.97%; Activity (A549 [21]): 0.529%; IC50 (Tubulin): Active; viability at 0.0025 µM (A549 [22]): 88.8%; viability at 0.005 µM (A549 [23]): 82.8%; Activity (A549 [24]): 13.1%; IC50 (MCF7): 98 nM; viability at 0.01 µM (A549 [25]): 77.6%; Activity (A549 [26]): Dose-dependent effect; Activity (A549 [27]): 8.66%; Activity [28]: 449.88 mm3; IC50 (A549 [29]): 50 nM; IC50 (HEK293): > 100000 nM; Activity (A549 [30]): 5.36%; Activity [31]: Non-Toxic; Activity [32]: Non-Toxic; Activity (A549 [33]): 91.56%; Activity [34]: 58.4%
